Laboratory results from patent US20160367623A1, “AGONISTS OF GUANYLATE CYCLASE USEFUL FOR THE TREATMENT OF GASTROINTESTINAL DISORDERS, INFLAMMATION, CANCER AND OTHER DISORDERS” (priority 2015, published 2016).
Bridge positions count the residues as written; N and C are the ends. Ends that are not written are not given here.

Test system: patients with chronic idiopathic constipation (CIC)
Experiment: Second phase 3 CIC trial: change from baseline in stool consistency (BSFS)
Assay type: in vivo, human
Settings: 3 mg
[1] = Post-Treatment Week 13, All Randomized (includes Duplicate Patients)
[2] = Post-Treatment Week 13, ITT Population
[3] = Post-Treatment Week 13, ITT Population-Excluding Duplicate Patients
[4] = Post-Treatment Week 14, All Randomized (includes Duplicate Patients)
[5] = Post-Treatment Week 14, ITT Population
[6] = Post-Treatment Week 14, ITT Population-Excluding Duplicate Patients
[7] = Week 1, All Randomized (includes Duplicate Patients)
[8] = Week 1, ITT Population-Excluding Duplicate Patients
[9] = Week 2, All Randomized (includes Duplicate Patients)
[10] = Week 2, ITT Population-Excluding Duplicate Patients
[11] = Week 3, All Randomized (includes Duplicate Patients)
[12] = Week 3, ITT Population-Excluding Duplicate Patients
[13] = Week 4, All Randomized (includes Duplicate Patients)
[14] = Week 4, ITT Population-Excluding Duplicate Patients
[15] = Week 5, All Randomized (includes Duplicate Patients)
[16] = Week 5, ITT Population-Excluding Duplicate Patients
[17] = Week 6, All Randomized (includes Duplicate Patients)
[18] = Week 6, ITT Population-Excluding Duplicate Patients

Asn^1-Asp^2-Glu^3-Cys^4-Glu^5-Leu^6-Cys^7-Val^8-Asn^9-Val^10-Ala^11-Cys^12-Thr^13-Gly^14-Cys^15-Leu^16 (NDECELCVNVACTGCL; disulfide 4-12, 7-15) [Plecanatide, uroguanylin analogue, guanylate cyclase-C agonist; (C4:C12, C7:C15) bicycle peptide]
Change from Baseline in Stool Consistency, Difference from Placebo [1]: 0.24 | Change from Baseline in Stool Consistency, LS Mean (SE) [1]: 1.23 (0.069) | Change from Baseline in Stool Consistency, Mean (SD) [1]: 1.27 (1.358) | Change from Baseline in Stool Consistency, Difference from Placebo [2]: 0.23 | Change from Baseline in Stool Consistency, LS Mean (SE) [2]: 1.22 (0.071) | Change from Baseline in Stool Consistency, Mean (SD) [2]: 1.25 (1.368) | Change from Baseline in Stool Consistency, Difference from Placebo [3]: 0.23 | Change from Baseline in Stool Consistency, LS Mean (SE) [3]: 1.22 (0.072) | Change from Baseline in Stool Consistency, Mean (SD) [3]: 1.25 (1.374) | Change from Baseline in Stool Consistency, Difference from Placebo [4]: 0.15 | Change from Baseline in Stool Consistency, LS Mean (SE) [4]: 1.14 (0.071) | Change from Baseline in Stool Consistency, Mean (SD) [4]: 1.19 (1.393) | Change from Baseline in Stool Consistency, Difference from Placebo [5]: 0.14 | Change from Baseline in Stool Consistency, LS Mean (SE) [5]: 1.15 (0.073) | Change from Baseline in Stool Consistency, Mean (SD) [5]: 1.19 (1.402) | Change from Baseline in Stool Consistency, Difference from Placebo [6]: 0.14 | Change from Baseline in Stool Consistency, LS Mean (SE) [6]: 1.15 (0.074) | Change from Baseline in Stool Consistency, Mean (SD) [6]: 1.18 (1.408) | Change from Baseline in Stool Consistency, Difference from Placebo [7]: 0.68 | Change from Baseline in Stool Consistency, LS Mean (SE) [7]: 1.26 (0.070) | Change from Baseline in Stool Consistency, Mean (SD) [7]: 1.38 (1.464) | Change from Baseline in Stool Consistency, Difference from Placebo (Week 1, ITT Population): 0.68 | Change from Baseline in Stool Consistency, LS Mean (SE) (Week 1, ITT Population): 1.28 (0.072) | Change from Baseline in Stool Consistency, Mean (SD) (Week 1, ITT Population): 1.39 (1.479) | Change from Baseline in Stool Consistency, Difference from Placebo [8]: 0.69 | Change from Baseline in Stool Consistency, LS Mean (SE) [8]: 1.30 (0.073) | Change from Baseline in Stool Consistency, Mean (SD) [8]: 1.39 (1.469) | Change from Baseline in Stool Consistency, Difference from Placebo [9]: 0.66 | Change from Baseline in Stool Consistency, LS Mean (SE) [9]: 1.35 (0.070) | Change from Baseline in Stool Consistency, Mean (SD) [9]: 1.46 (1.566) | Change from Baseline in Stool Consistency, Difference from Placebo (Week 2, ITT Population): 0.66 | Change from Baseline in Stool Consistency, LS Mean (SE) (Week 2, ITT Population): 1.38 (0.073) | Change from Baseline in Stool Consistency, Mean (SD) (Week 2, ITT Population): 1.46 (1.583) | Change from Baseline in Stool Consistency, Difference from Placebo [10]: 0.65 | Change from Baseline in Stool Consistency, LS Mean (SE) [10]: 1.39 (0.073) | Change from Baseline in Stool Consistency, Mean (SD) [10]: 1.46 (1.578) | Change from Baseline in Stool Consistency, Difference from Placebo [11]: 0.52 | Change from Baseline in Stool Consistency, LS Mean (SE) [11]: 1.41 (0.070) | Change from Baseline in Stool Consistency, Mean (SD) [11]: 1.52 (1.570) | Change from Baseline in Stool Consistency, Difference from Placebo (Week 3, ITT Population): 0.51 | Change from Baseline in Stool Consistency, LS Mean (SE) (Week 3, ITT Population): 1.41 (0.073) | Change from Baseline in Stool Consistency, Mean (SD) (Week 3, ITT Population): 1.51 (1.573) | Change from Baseline in Stool Consistency, Difference from Placebo [12]: 0.51 | Change from Baseline in Stool Consistency, LS Mean (SE) [12]: 1.42 (0.074) | Change from Baseline in Stool Consistency, Mean (SD) [12]: 1.52 (1.578) | Change from Baseline in Stool Consistency, Difference from Placebo [13]: 0.58 | Change from Baseline in Stool Consistency, LS Mean (SE) [13]: 1.45 (0.071) | Change from Baseline in Stool Consistency, Mean (SD) [13]: 1.56 (1.509) | Change from Baseline in Stool Consistency, Difference from Placebo (Week 4, ITT Population): 0.55 | Change from Baseline in Stool Consistency, LS Mean (SE) (Week 4, ITT Population): 1.45 (0.073) | Change from Baseline in Stool Consistency, Mean (SD) (Week 4, ITT Population): 1.55 (1.494) | Change from Baseline in Stool Consistency, Difference from Placebo [14]: 0.54 | Change from Baseline in Stool Consistency, LS Mean (SE) [14]: 1.45 (0.074) | Change from Baseline in Stool Consistency, Mean (SD) [14]: 1.56 (1.504) | Change from Baseline in Stool Consistency, Difference from Placebo [15]: 0.68 | Change from Baseline in Stool Consistency, LS Mean (SE) [15]: 1.53 (0.071) | Change from Baseline in Stool Consistency, Difference from Placebo (Week 5, ITT Population): 0.68 | Change from Baseline in Stool Consistency, LS Mean (SE) (Week 5, ITT Population): 1.55 (0.074) | Change from Baseline in Stool Consistency, Mean (SD) (Week 5, ITT Population): 1.69 (1.462) | Change from Baseline in Stool Consistency, Difference from Placebo [16]: 0.67 | Change from Baseline in Stool Consistency, LS Mean (SE) [16]: 1.56 (0.075) | Change from Baseline in Stool Consistency, Mean (SD) [16]: 1.70 (1.469) | Change from Baseline in Stool Consistency, Difference from Placebo [17]: 0.74 | Change from Baseline in Stool Consistency, LS Mean (SE) [17]: 1.55 (0.072) | Change from Baseline in Stool Consistency, Difference from Placebo (Week 6, ITT Population): 0.74 | Change from Baseline in Stool Consistency, LS Mean (SE) (Week 6, ITT Population): 1.56 (0.074) | Change from Baseline in Stool Consistency, Mean (SD) (Week 6, ITT Population): 1.67 (1.533) | Change from Baseline in Stool Consistency, Difference from Placebo [18]: 0.73 | Change from Baseline in Stool Consistency, LS Mean (SE) [18]: 1.56 (0.075) | Change from Baseline in Stool Consistency, Mean (SD) [18]: 1.67 (1.529)
